# Reference: patent publication US8084602B2, “Porphyrin derivatives and their use in photodynamic therapy” (Destiny Pharma Limited, priority 2002, dated 2011)
# Tests used:
# [1] = system: S. aureus ATCC BAA-44 (a methicillin resistant S. aureus); assay: Cell survival (colony forming unit) with or without illumination; format: cell-based, Staphylococcus aureus; conditions: for dark toxicity against BAA-44: absence of light, at the concentrations tested (FIG. 4); for Log reduction: S. aureus
# Experimental: (§1) The toxic effects of exemplary compounds of the invention against two bacterial strains, the Gram negative bacterium Escherichia coli (strain ATCC 25922) and the Gram positive bacterium Staphylococcus aureus (methicillin-resistant strain ATTC BAA-44), were evaluated by measuring the extent of growth inhibition (bacteriostatic effect) and growth […] (cytocidal effect) in the dark and upon light exposure. Initial compound screening was undertaken using white light [390-740 nm] (150 mW/cm^2) for various timepoints of a concentration of 3 μM (see Table 1). Further experiments were undertaken on those compounds identified from this initial screen using a light source emitting light at a wavelength between 417-420 nm at 15.2 mW/cm^2, 13.68 J/cm^2 (Waldmann Eclairage SA, France) (see Table 20.
# (§2) For the further investigation of the exemplary compounds (Table 2), the following protocol was adopted: • (i) Bacteria (S. aureus BAA-44 and E. coli 25922) were grown in brain heart infusion (BHI) broth until they reached the stationary phase of growth. • (ii) The cells were harvested by centrifugation (3000 g for 15 min) with a table centrifuge, washed with 10 mM PBS at pH 7.4 containing 2.7 mM KCl and 0.14 M NaCl and suspended in PBS at an optical density of 0.7 at 650 nm corresponding to 10^8-10^9 cells/ml. • (iii) The bacteria, at the desired cell density (˜10^8 cells/ml) were incubated for 5 min in the dark with various concentrations of the exemplary compounds. • (iv) At the end of the incubation period the cells were washed three times with PBS, suspended in PBS, transferred into a 96-well microtitre plate (200 μl/well) and illuminated for 15 min with the Waldmann light source (15.2 mW/cm^2; 13.7 J/cm^2). The cells were illuminated from the bottom of the plate laying it on the glass cover of the lamp. • (v) After illumination, cell survival was determined by plating serially diluted aliquots of treated and untreated (i.e. no exemplary compound or light present) cells onto brain heart agar (BHA) and counting the number of colonies after 18-24 h incubation at 37° C.
# (§3) the above colony forming unit (CFU) protocol was also used to investigate the photodynamic activity of very low concentrations of the compounds of the invention.
# E. coli ATCC 25922 = assay: as above; format: cell-based, Escherichia coli; conditions: for Log reduction: E. coli
# Experimental: as §1, §2, §3
# [2] = Chemical stability, qualitative stress tests (HPLC, LC-MS); format: physicochemical; conditions: solid, aqueous solution and PBS; 7 days each at 50° C., 70° C., 90° C.
# Experimental: The following HPLC methodology was established for the analysis of the exemplary compounds of the invention.
# The method involves detection by UV at a wavelength of 420 nm, which is very specific for these compounds. In order to monitor impurities not related to the porphyrin structure (and therefore not absorbing at 420 nm) UV spectra of the whole chromatograms were also recorded between 200 nm and 700 nm by DAD (diode array detector) in certain experiments.
# Qualitative stress tests were undertaken on the exemplary compounds of the invention. Analysis was undertaken by HPLC & LC-MS. The compounds were stress tested in solid form, in an aqueous solution and a solution made up in phosphate-buffered saline buffer. The samples were initially incubated for 7 days at 50° C. and a sample removed for testing. The samples were then incubated for a further 7 days at 70° C., samples removed as before and the samples incubated further for 7 days at 90° C. HPLC analysis of freshly prepared solutions was undertaken and compared to the samples after 7, 14 and 21 days incubation. A visual comparison of the chromatograms was then undertaken and the content of the main products and by-products as area percentage values determined (see FIG. 11).
# [3] = system: normal human epidermal keratinocytes (NHEK); assay: Toxicity against human skin cells, MTT-assay; format: cell-based
# Experimental: (§4) Test compounds were screened for toxicity against cultured human skin cells using normal human epidermal keratinocytes (NHEK) and normal human dermal fibroblasts (NHDF), purchased from CellSystems Biotechnologie GmbH, Germany.
# (§5) The NHEK and NHDF cells were used between passages 3 and 10. The cells were seeded with 7.5 and/or 15×10^4 cells/well (microtitreplate) and allowed to attach overnight in an incubator (37° C., 5% CO2). […]
# (§6) Phototoxicity was tested by standard MTT-assay (Mossman et al., 1983, Immunological Methods 65:55-63). MTT is an indicator of metabolically active cells. Dependent on enzyme activity in mitochondria a colour reaction can be visualised, which can be measured by ELISA reader (540 nm). The cell viability data were normalised, i.e. the OD values of cells after PDT without photosensitisers were adjusted to one. Each experiment was repeated three times.
# [4] = system: normal human dermal fibroblasts (NHDF); assay: Toxicity against human skin cells, MTT-assay; format: cell-based
# Experimental: as §4, §5, §6
# [5] = system: bacterial cells compared to human skin cells; assay: Selectivity for bacteria compared to human skin cells; format: cell-based; conditions: at a dose of 0.01 μM
# Experimental: as §2, §4
# The NHEK and NHDF cells were used between passages 3 and 10. The cells were seeded with 7.5 and/or 15×10^4 cells/well (microtitreplate) and allowed to attach overnight in an incubator (37° C., 5% CO2). After incubation with different concentrations of the selected photosensitisers, the cells were illuminated for fifteen minutes (Light source 236, Waldmann; 15.2 mW/cm^2, 13.7 J/cm^2) and then incubated for 24 hours in the dark.
# as §6
# [6] = dark toxicity (no illumination), 1 μM
# [7] = dark toxicity (no illumination), 10 μM
# [8] = photodynamic activity, 0.01 μM, illumination 15 min
# [9] = photodynamic activity, 1 μM, illumination 15 min
# [10] = dark toxicity (no illumination), 0.01 μM
# [11] = dark toxicity, 10 μM, no illumination
# [12] = photodynamic activity (light toxicity), 0.01 μM, illumination 15 min
# [13] = photodynamic activity (light toxicity), 0.1 μM, illumination 15 min
# [14] = photodynamic activity (light toxicity), 1 μM, illumination 15 min
# [15] = dark toxicity, 1 μM, no illumination
Structure (SMILES),dark toxicity against BAA-44 [1],"Log reduction [1, 8]",chemical stability under stress test [2],"Survival [3, 11]","Survival [3, 12]","Survival [3, 13]","Survival [4, 15]","Survival [4, 11]","Survival [4, 12]","Survival [4, 13]","Survival [4, 14]",toxicity to bacterial cells compared to human skin cells [5],further results
"CN(C)CCC[N+](C)(C)CCCOc1ccc(-c2c3nc(cc4ccc([nH]4)c(-c4ccc(OCCC[N+](C)(C)CCCN(C)C)cc4)c4nc(cc5ccc2[nH]5)C=C4)C=C3)cc1.[Cl-].[Cl-] [Compound 8, 5,15-bis-(4-{3-[(3-Dimethylamino-propyl)-dimethylammonio]-propyloxy}-phenyl)-porphyrin dichloride]",negligible,3,less stable than Compounds 10 and 12,97%,98%,33%,100%,68%,100%,12%,3%,preferentially toxic to bacterial cells compared to human skin cells,"Log reduction [1, 6]: <1 (<10^−1); Log reduction [1, 7]: <1 (<10^−1); Log reduction ([1]; photodynamic activity, 0.1 μM, illumination 15 min): 3 (10^−3); Log reduction [1, 9]: 6 (10^−6); Log reduction (E. coli ATCC 25922; [10]): <1 (<10^−1); Log reduction (E. coli ATCC 25922; [7]): 2 (10^−2); Log reduction (E. coli ATCC 25922; [8]): <1 (<10^−1); Log reduction (E. coli ATCC 25922; photodynamic activity, 10 μM, illumination 15 min): >6 (>10^−6); Survival [3, 14]: 0.5%"
"C[N+](C)(C)CCCOc1ccc(-c2c3nc(cc4ccc([nH]4)c(-c4ccc(OCCC[N+](C)(C)C)cc4)c4nc(cc5ccc2[nH]5)C=C4)C=C3)cc1.[Cl-].[Cl-] [Compound 10, 5,15-bis-[4-(3-Trimethylammonio-propyloxy)-phenyl]-porphyrin dichloride]",negligible,>4 (>10^−4),good stability,51%,62%,1.0%,100%,91%,80%,8%,0.5%,preferentially toxic to bacterial cells compared to human skin cells,"bacteria killed ([1]; BAA-44, 0.0025 μM, with light): 90%; Concentration of Compound 10 required to obtain a 3 log reduction in cells (μM) ([1]; Staphylococcus aureus ATCC BAA-44): 0.005 μM; Log reduction [1, 10]: <1 (<10^−1); Concentration of Compound 10 required to obtain a 3 log reduction in cells (μM) (E. coli ATCC 25922; E. coli ATCC 25922): 0.1 μM; Log reduction (E. coli ATCC 25922; [6]): <1 (<10^−1); Log reduction (E. coli ATCC 25922; [9]): >6 (>10^−6); Survival [3, 15]: 100%"
